ChEMBL document CHEMBL1799992, “Substituent effect on the preferred DNA binding mode and affinity of a homologous series of naphthalene diimides” (Bioorg Med Chem Lett, 2011)

Key:
Nucleic Acid [1] = experiment: Binding affinity to 20 mer GC-rich DNA in MES00 buffer at pH 6.3 by isothermal titration calorimetry; format: nucleic-acid assay
Nucleic Acid [2] = experiment: Binding affinity to 20 mer AT-rich DNA in MES00 buffer at pH 6.3 by isothermal titration calorimetry; format: nucleic-acid assay
Nucleic Acid [3] = experiment: Selectivity ratio of binding constant K for AT-rich DNA to binding constant K for GC-rich DNA; format: nucleic-acid assay
Nucleic Acid [4] = experiment: Binding affinity to calf thymus DNA assessed as high affinity binding constant in MES00 buffer at pH 6.3 by isothermal titration calorimetry; format: nucleic-acid assay; conditions: Bos taurus
[5] = molecular target: T1, DNA topoisomerase 1 (Homo sapiens) (UniProt P11387); experiment: Inhibition of human topoisomerase 1 assessed as minimum concentration required for complete re-supercoiling of pUC19 DNA after 1 hr using ethidium bromide staining by agarose gel electrophoresis
T1 sequence (whole entry): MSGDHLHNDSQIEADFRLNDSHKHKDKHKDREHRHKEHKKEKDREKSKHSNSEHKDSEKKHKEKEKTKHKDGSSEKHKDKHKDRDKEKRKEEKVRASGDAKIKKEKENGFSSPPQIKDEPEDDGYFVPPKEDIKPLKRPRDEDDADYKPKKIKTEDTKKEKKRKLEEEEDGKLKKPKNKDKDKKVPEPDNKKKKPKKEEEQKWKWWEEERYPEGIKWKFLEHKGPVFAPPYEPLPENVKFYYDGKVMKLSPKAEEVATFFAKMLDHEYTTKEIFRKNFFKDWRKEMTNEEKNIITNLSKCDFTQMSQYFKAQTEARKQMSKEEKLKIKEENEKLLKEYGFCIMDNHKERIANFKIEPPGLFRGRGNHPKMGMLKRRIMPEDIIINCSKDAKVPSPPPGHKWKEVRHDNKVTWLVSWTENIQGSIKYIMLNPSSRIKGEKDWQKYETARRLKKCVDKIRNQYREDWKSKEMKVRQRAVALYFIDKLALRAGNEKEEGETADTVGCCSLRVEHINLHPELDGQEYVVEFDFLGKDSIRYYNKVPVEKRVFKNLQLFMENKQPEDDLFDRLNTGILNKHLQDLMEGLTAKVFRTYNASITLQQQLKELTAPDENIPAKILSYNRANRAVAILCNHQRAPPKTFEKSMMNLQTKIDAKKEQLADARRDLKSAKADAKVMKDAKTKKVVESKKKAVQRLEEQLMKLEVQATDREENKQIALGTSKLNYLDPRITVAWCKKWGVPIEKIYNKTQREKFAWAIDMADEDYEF

Nucleic Acid [6] = experiment: Displacement of ethidium bromide from calf thymus DNA assessed as fluorescence intensity per microL of compound at 7 x 10^-5 M after 3 mins; format: nucleic-acid assay; conditions: Bos taurus
Nucleic Acid [7] = experiment: Binding affinity to calf thymus DNA assessed as low affinity binding constant in MES00 buffer at pH 6.3 by isothermal titration calorimetry; format: nucleic-acid assay; conditions: Bos taurus
Nucleic Acid [8] = experiment: Binding affinity to calf thymus DNA assessed in MES00 buffer at pH 6.3 by isothermal titration calorimetry; format: nucleic-acid assay; conditions: Bos taurus

| Compound | K (Nucleic Acid [1]) [×10⁶ /M] | K (Nucleic Acid [2]) [×10⁶ /M] | Ratio (Nucleic Acid [3]) | K (Nucleic Acid [4]) [×10⁶ /M] | Activity [5] [µM] | Flu intensity (Nucleic Acid [6]) | K (Nucleic Acid [7]) [×10⁶ /M] | K (Nucleic Acid [8]) [×10⁶ /M] |
| --- | --- | --- | --- | --- | --- | --- | --- | --- |
| CCCC[N+](C)(CCCC)CN1C(=O)c2ccc3c4c(ccc(c24)C1=O)C(=O)N(C[N+](C)(CCCC)CCCC)C3=O | 0.38 | 1.38 | 3.6 | 78 | > 6.7 | 358 | 3.9 | – |
| CC[N+](C)(CC)CN1C(=O)c2ccc3c4c(ccc(c24)C1=O)C(=O)N(C[N+](C)(CC)CC)C3=O | 0.37 | 0.85 | 2.3 | 31 | 5.5 | – | 3.6 | – |
| CCC[N+](C)(CCC)CN1C(=O)c2ccc3c4c(ccc(c24)C1=O)C(=O)N(C[N+](C)(CCC)CCC)C3=O | 0.24 | 0.73 | 3 | 43 | 6.7 | – | 3 | – |
| C[N+](C)(C)CN1C(=O)c2ccc3c4c(ccc(c24)C1=O)C(=O)N(C[N+](C)(C)C)C3=O | 1.17 | 1.11 | – | – | 3.5 | 400 | – | 15 |
